Each structure is given as a SMILES string.

From patent US11884651B1, “7-(4-((4-benzylidene-5-oxo-2-phenyl-4,5-dihydro-1H-imidazol-1-yl)methyl)piperazin-1-yl)-1-cyclopropyl-6-fluoro-4-oxo-1,4-dihydroquinoline-3-carboxylic acid as an anti-inflammatory compound” (KING FAISAL UNIVERSITY, priority 2023, dated 2024) come the findings set out here.

Data set [1] concerns the target Bovine Serum Albumin (BSA) (Bos taurus, UniProt P02769). Description: Bovine Serum Albumin Assay (BSA), inhibition of heat-induced protein denaturation (in vitro anti-inflammatory activity). Type of data set: biochemical. How it is done: Bovine Serum Albumin Assay (BSA) In vitro-inflammatory activities of the tested samples were determined using a modified method of the BSA assay reported by Williams et al. BSA solution (0.4%, w/v) was prepared in Tris Buffered Saline. The pH was adjusted to 6.4 with glacial acetic acid. Different dilutions of 20, 40, 60, 80, and 100 pg/mL of the stock solutions of 7-(4((4-benzylidene-5-oxo-2-phenyl-4,5-dihydro-1H-imidazol-1-yl)methyl)piperazin-1-yl)-1-cyclopropyl-6-fluoro-4-oxo-1,4-dihydroquinoline-3-carboxylic acid (4) were added to test tubes containing 1 mL of 0.4%, w/v BSA buffer solution. Both negative (solvent) and positive (aspirin) controls were assayed in a similar manner. The solutions were then heated in a water bath at 72° C. for 10 minutes and cooled for 20 minutes under laboratory conditions. The turbidity of the solutions (level of protein precipitation) was measured at 660 nm in Spectrophotometer (V-770 UV-Visible/NIR Spectrophotometer). The percentage inhibition of precipitation (protein denaturation) was determined relative to the negative control using the following equation: [formula] [formula]

Chain of Bovine Serum Albumin (BSA) (P02769 25-607): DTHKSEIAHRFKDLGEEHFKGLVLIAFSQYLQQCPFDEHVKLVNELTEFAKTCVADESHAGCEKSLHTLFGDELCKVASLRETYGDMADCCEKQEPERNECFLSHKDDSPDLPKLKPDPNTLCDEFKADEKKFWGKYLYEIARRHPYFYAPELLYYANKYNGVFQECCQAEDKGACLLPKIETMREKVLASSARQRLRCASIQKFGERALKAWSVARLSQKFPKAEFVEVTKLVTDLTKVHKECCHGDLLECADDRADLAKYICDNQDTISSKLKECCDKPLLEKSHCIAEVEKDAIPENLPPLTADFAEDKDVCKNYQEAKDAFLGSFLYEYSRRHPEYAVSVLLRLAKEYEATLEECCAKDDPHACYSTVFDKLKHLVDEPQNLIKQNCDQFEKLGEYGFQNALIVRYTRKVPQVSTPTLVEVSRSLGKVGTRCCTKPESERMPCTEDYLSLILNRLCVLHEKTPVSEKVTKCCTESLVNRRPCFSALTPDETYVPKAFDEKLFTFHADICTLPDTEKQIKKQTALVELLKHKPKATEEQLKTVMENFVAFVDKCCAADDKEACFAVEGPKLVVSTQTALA

Compound `O=C(O)c1cn(C2CC2)c2cc(N3CCN(CN4C(=O)/C(=C\c5ccccc5)N=C4c4ccccc4)CC3)c(F)cc2c1=O` [Compound 4, 7-(4-((4-benzylidene-5-oxo-2-phenyl-4,5-dihydro-1H-imidazol-1-yl)methyl)piperazin-1-yl)-1-cyclopropyl-6-fluoro-4-oxo-1,4-dihydroquinoline-3-carboxylic acid] showed a melting point of 232 to 234 °C. For the same compound, the “in vitro anti-inflammatory activity (result in words)” value in data set [1] (BSA assay) was “considerable anti-inflammatory effect”. Further, in data set [1] (bovine, 10 min, 100 pg/mL, pH 6.4), the “percentage inhibition of precipitation (protein denaturation)” value worked out at 84.78%.

As for `CC(=O)Oc1ccccc1C(=O)O` [aspirin, reference compound], the “percentage inhibition of precipitation (protein denaturation)” value in data set [1] (100 pg/ml (concentration printed for aspirin), 0.4% w/v BSA, pH 6.4, 72° C. for 10 minutes, turbidity at 660 nm, relative to negative control) was 90.75%.
